{"source": "patent US8168650B2", "about": "“Therapeutic uses of bicyclic ligands of sigma 2 receptor” (priority 2006, dated 2012)", "key": {"sigma-2 receptors": {"target": "T1, sigma-2 receptors (Mus musculus, UniProt Q8VD00)", "T1 construct": "Membrane homogenates were prepared from ˜400 mg Panc-02 mouse tumor allografts; from tissue; host or cells: Panc-02 mouse pancreatic tumor allografts (membrane homogenates)", "T1 sequence (Q8VD00 1-176)": "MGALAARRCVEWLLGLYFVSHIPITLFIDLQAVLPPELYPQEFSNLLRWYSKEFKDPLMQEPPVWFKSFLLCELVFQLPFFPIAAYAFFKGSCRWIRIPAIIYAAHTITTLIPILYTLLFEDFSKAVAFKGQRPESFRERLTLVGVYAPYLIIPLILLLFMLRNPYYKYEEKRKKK", "experiment": "Saturation binding (Scatchard analysis) of [3H]RHM-1 in Panc-02 tumor allograft membrane homogenates", "experimental": "Membrane homogenates were prepared from ˜400 mg Panc-02 mouse tumor allografts, which were removed from tumor bearing mice and frozen on dry ice immediately and stored at −80° C. until used. Before homogenization, the tumor allografts were allowed to thaw slowly on ice. Tissue homogenization was carried out at 4° C. using a Potter-Elvehjem tissue grinder at a concentration of 1 g of tissue/ml of 50 mM Tris-HCl at pH 8.0. The crude membrane homogenate was then transferred to a 50 ml centrifuge tube and resuspended to a concentration of 200 mg of tissue/ml of 50 mM Tris-HCl. Additional homogenization was accomplished using an Ultra-Turrax T8 polython homogenizer (IKA Works, Inc, Wilmington, N.C.). The final homogenate was then centrifuged for 10 min at 1000 g, the pellet discarded and the supernatant mixed by vortexing and stored at −80° C. until used. The protein concentration of the suspension was determined (DC protein assay, Bio-Rad, Hercules, Calif.) and averaged ˜10 mg of protein/ml of stock solution. […] The concentrations of the radioligand ranged from 0.1-18 nM. […] Each filter was washed with 200 μl of ice-cold wash buffer for a total of three washes. […] The equilibrium dissociation constant (Kd) and maximum number of binding sites (BBmax) were determined by a linear regression analysis of the transformed data using the method of Scatchard.\nData from saturation radioligand binding studies was transformed to determine the Hill coefficient, nH, defined as: […]\nIn these experiments, direct saturation binding studies were carried out using [^3H]RHM-1 with membrane homogenates of PancO2 tumor allografts."}, "Panc-02 cells": {"test_system": "Panc-02 cells", "experiment": "Caspase inhibitors on sigma-2 receptor ligand-induced apoptosis in Panc-02 cells", "assay_type": "cell-based, mouse", "experimental": "(§1) Tumor cells were seeded at a density of approximately 0.2×10^6 cells per well in 12-well plates in 1.0 ml culture medium. Cells were split and pre-incubated at 37° C. in humidified 5% CO2 for more than 24 hours (Panc-02) and 48 hours (CFPAC-1, AsPC-1, Panc-1) to insure uniform growth conditions. Compounds were dissolved in DMSO and added to the culture medium at the concentrations indicated. The final concentration of DMSO in the cell culture medium was less than 1%. The cells were then incubated for 24 hours at 37° C. in humidified 5% CO2. The extent of apoptosis was subsequently measured as previously reported (Guelen, L., et al., Oncogene 2004, 23: 1153-1165). Briefly, staining was performed on trypsin-EDTA treated cultures that had been fixed with 1% paraformaldehyde and 90% methanol. Cell pellets were resuspended in TUNEL reagent (APO-BRDU kit, San Diego, Calif.) or cleaved caspase-3 antibody (Cell Signaling Technology, Inc. Boston, Mass.) and incubated overnight at room temperature (TUNEL) or 4° C. (cleaved caspase-3). After washing, cells were resuspended in fluorescein antibody or 7-AAD buffer and incubated for 1 hour at room temperature. Cell-associated fluorescence was determined using a flow cytometry (FACScan, BD Biosciences) and analyzed with CellQuest software (BD Biosciences).\n(§2) At the highest dose tested (10 μM), all sigma-2 receptor ligands induced an additional 10-20% of the cells to undergo apoptosis (FIG. 15A). […] The pan-caspase inhibitor (Z-VAD-fmk) and caspase-3/7 inhibitor (DEVD-CHO) prevented sigma-2 receptor ligand-induced apoptosis in panc-02 cells, while the caspase-1 inhibitor (YVAD-CHO) had no effect (FIG. 15B)."}, "EMT-6 cells [1]": {"test_system": "EMT-6 cells", "experiment": "TUNEL assay, enhancement of Dox-induced apoptosis in EMT-6 cells", "assay_type": "cell-based, mouse", "settings": "EMT-6, Dox 30 nM alone", "experimental": "In these experiments, a TUNEL assay was used to detect apoptotic cells with damaged DNA strands. […] Furthermore, EMT-6 cells treated with Dox at 30 nM yielded only 10% TUNEL-positive cells. However, when EMT-6 cells were treated with 2 μM WC-II-26 plus 30 nM Dox, the percentage of TUNEL-positive cells rose to 43.3%."}, "EMT-6 cells [2]": {"test_system": "EMT-6 cells", "experiment": "Colony formation assay on Doxorubicin-treated EMT-6 cells", "assay_type": "cell-based, mouse", "experimental": "This Example illustrates colony formation assay on Doxorubicin (“Dox”)-treated EMT-6 cells in the presence or absence of 2 μM WC-II-26. The structures of the sigma ligands used in this and subsequent examples are illustrated in FIG. 5 and FIG. 6."}, "EMT-6 cells [3]": {"test_system": "EMT-6 cells", "settings": "EMT-6, 1 h pre-incubation with inhibitor (100 μM); for effect on cell death / cytotoxic effects induced by the three σ2 selective ligands: MTS assay", "quoted_text": "To determine the effect of blocking the caspase-dependent apoptotic pathway on sigma ligand-induced cell killing, the caspase inhibitors, Z-VAD-FMK or Z-DEVD-FMK (Calbiochem, San Diego, Calif.) were added to the culture medium 1 hour before the sigma ligands, and the MTS assay performed as described above."}, "CFPAC-1": {"test_system": "CFPAC-1", "experiment": "Apoptosis in CFPAC-1 cells", "assay_type": "cell-based, human", "settings": "CFPAC-1, highest dose tested", "experimental": "as §1, with “Biosciences). […]” for “Biosciences).”"}, "[4]": {"test_system": "pancreatic cancer cell lines (Panc-02, CFPAC-1, AsPC-1, Panc-1)", "experiment": "Apoptosis in pancreas cancer cell lines (TUNEL / cleaved caspase-3, flow cytometry)", "assay_type": "cell-based, mouse, human", "settings": "all cell lines tested with the exception of CFPAC-1", "experimental": "as §1, §2"}, "[5]": {"settings": "membrane homogenates of Panc-02 tumor allografts"}}, "note": "Counter-ions that a name gives are not always drawn. Like-named read-outs stand apart in the source and are kept apart here. Peptide text beside a SMILES is read from it. * marks the point of attachment. Cbz = O=C(OCc1ccccc1)*; CH2F = FC*"}
{"compound": "COc1cc2c(cc1OC)CN(CCCCNC(=O)c1cc(C)ccc1OC)CC2", "note": "[[3H]RHM-1]", "values": [{"measurement": "Bmax (maximum number of binding sites)", "setting": "sigma-2 receptors; [5]", "result": 1250, "unit": "fmol/mg protein"}, {"measurement": "Kd", "setting": "sigma-2 receptors; [5]", "result": 4.88, "unit": "nM"}, {"measurement": "Hill coefficient nH (mean)", "setting": "sigma-2 receptors; saturation binding, Panc-02 tumor allografts", "result": "close to unity"}]}
{"compound": "COc1ccc(C)cc1NC(=O)OC1CC2CCCC(C1)N2CCCCCCNS(=O)(=O)c1cccc2c(N(C)C)cccc12", "note": "(stereo not drawn) (as salt: oxalate) [Compound 9, N-(9-(6-(5-Dimethylamino-1-naphthalenesulfonamido))hexyl)-9-azabicyclo[3.3.1]-nonan-3α-yl-N-(2-methoxy-5-methylphenyl)carbamate oxalate]", "values": [{"measurement": "melting point", "result": "162 to 163", "unit": "°C"}]}
{"compound": "CC(=O)N[C@@H](CC(=O)O)C(=O)N[C@@H](CCC(=O)O)C(=O)N[C@H](C(=O)N[C@H](C=O)CC(=O)O)C(C)C", "note": "[DEVD-CHO]", "values": [{"measurement": "effect on sigma-2 receptor ligand-induced apoptosis", "setting": "Panc-02 cells", "result": "prevented"}]}
{"compound": "COc1cccc2c1C(=O)c1c(O)c3c(c(O)c1C2=O)C[C@@](O)(C(=O)CO)C[C@@H]3O[C@H]1C[C@H](N)[C@H](O)[C@H](C)O1", "note": "[Dox, Doxorubicin, reference compound]", "values": [{"measurement": "TUNEL-positive cells", "setting": "EMT-6 cells [1]", "result": 10, "unit": "%"}, {"measurement": "number of colonies formed compared to control cells", "setting": "EMT-6 cells [2]; EMT-6, 10, 20, and 30 nM of Dox alone", "result": "not changed significantly"}, {"measurement": "decrease in colony forming efficiency", "setting": "EMT-6 cells [2]; EMT-6, Dox 40 nM alone", "result": "about 25%"}]}
{"compound": "CC(=O)N[C@@H](Cc1ccc(O)cc1)C(=O)N[C@H](C(=O)N[C@@H](C)C(=O)N[C@H](C=O)CC(=O)O)C(C)C", "note": "[YVAD-CHO]", "values": [{"measurement": "effect on sigma-2 receptor ligand-induced apoptosis", "setting": "Panc-02 cells", "result": "no effect"}]}
{"compound": "COC(=O)C[C@H](NC(=O)[C@H](C)NC(=O)[C@@H](NC(=O)OCc1ccccc1)C(C)C)C(=O)CF", "note": "[Z-VAD-FMK] (Cbz-Val-Ala-Asp(OMe)-CH2F)", "values": [{"measurement": "effect on DNA fragmentation after treatment with the three σ2 selective ligands", "setting": "EMT-6 cells [3]", "result": "partially blocked"}, {"measurement": "effect on cell death / cytotoxic effects induced by the three σ2 selective ligands", "setting": "EMT-6 cells [3]", "result": "partially, but not completely, blocked"}, {"measurement": "effect on cell death / cytotoxic effects induced by the three σ2 selective ligands", "setting": "EMT-6 cells [3]; listed as Z-VADFMK", "result": "partially blocked"}, {"measurement": "effect on sigma-2 receptor ligand-induced apoptosis", "setting": "Panc-02 cells", "result": "prevented"}]}
{"compound": "CC(C)=CCN1CCC2(C)c3cc(O)ccc3CC1C2C", "note": "(stereo not drawn) [pentazocine, reference compound]", "values": [{"measurement": "increase in apoptosis", "setting": "CFPAC-1", "result": "8-10%"}, {"measurement": "toxicity to pancreas cancer cell lines", "setting": "[4]", "result": "minimal toxicity"}]}
